Reference: ChEMBL document CHEMBL5291721, “A preclinical secondary pharmacology resource illuminates target-adverse drug reaction associations of marketed drugs” (Nat Commun, 2023)

Experiments:
[1] = target: T1, Alpha-2C adrenergic receptor (Homo sapiens, UniProt P18825); format: functional
T1 sequence (P18825 whole entry): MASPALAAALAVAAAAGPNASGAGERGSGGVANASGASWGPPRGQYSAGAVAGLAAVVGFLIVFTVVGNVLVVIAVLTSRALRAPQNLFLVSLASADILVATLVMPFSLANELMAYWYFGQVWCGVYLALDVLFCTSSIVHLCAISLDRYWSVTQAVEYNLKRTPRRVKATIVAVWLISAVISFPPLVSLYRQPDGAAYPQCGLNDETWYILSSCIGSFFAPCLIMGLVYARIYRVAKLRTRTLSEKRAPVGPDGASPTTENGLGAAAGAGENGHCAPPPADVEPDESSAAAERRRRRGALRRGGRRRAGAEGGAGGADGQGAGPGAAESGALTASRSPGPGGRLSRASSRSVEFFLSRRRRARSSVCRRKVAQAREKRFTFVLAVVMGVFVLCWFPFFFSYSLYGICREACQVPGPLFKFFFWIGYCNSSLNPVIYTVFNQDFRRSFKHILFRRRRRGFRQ

B2 bradykinin receptor = target: T2, B2 bradykinin receptor (Homo sapiens, UniProt P30411)
T2 sequence (P30411 whole entry): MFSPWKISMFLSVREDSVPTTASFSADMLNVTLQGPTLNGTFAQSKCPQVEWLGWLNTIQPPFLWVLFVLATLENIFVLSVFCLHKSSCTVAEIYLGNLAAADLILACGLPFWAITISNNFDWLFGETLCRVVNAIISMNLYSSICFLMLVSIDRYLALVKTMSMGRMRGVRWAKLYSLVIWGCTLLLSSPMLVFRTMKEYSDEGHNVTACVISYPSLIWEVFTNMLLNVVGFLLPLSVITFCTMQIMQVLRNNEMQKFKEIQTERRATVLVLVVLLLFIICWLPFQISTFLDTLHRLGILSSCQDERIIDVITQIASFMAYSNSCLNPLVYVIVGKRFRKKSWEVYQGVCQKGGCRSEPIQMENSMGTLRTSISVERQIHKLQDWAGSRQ

[2] = target: T3, Equilibrative nucleoside transporter 1 (Homo sapiens, UniProt Q99808)
T3 sequence (Q99808 whole entry): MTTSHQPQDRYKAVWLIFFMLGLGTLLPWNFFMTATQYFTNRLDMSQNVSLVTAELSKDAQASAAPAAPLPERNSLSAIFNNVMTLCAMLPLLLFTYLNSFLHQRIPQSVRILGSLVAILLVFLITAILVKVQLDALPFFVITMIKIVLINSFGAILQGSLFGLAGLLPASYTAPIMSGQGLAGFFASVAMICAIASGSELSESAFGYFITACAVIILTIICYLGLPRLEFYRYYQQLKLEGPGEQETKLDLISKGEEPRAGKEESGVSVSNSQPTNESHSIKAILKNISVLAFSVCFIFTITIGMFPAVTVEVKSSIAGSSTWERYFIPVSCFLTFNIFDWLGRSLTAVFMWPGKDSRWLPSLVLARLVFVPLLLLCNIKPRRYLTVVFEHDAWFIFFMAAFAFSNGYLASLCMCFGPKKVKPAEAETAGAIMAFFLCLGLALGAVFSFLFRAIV

D(1A) dopamine receptor = D(1A) dopamine receptor (Homo sapiens, UniProt P21728); format: functional, cell-based
[3] = target: T4, Cholecystokinin receptor type A (Homo sapiens, UniProt P32238)
T4 sequence (P32238 whole entry): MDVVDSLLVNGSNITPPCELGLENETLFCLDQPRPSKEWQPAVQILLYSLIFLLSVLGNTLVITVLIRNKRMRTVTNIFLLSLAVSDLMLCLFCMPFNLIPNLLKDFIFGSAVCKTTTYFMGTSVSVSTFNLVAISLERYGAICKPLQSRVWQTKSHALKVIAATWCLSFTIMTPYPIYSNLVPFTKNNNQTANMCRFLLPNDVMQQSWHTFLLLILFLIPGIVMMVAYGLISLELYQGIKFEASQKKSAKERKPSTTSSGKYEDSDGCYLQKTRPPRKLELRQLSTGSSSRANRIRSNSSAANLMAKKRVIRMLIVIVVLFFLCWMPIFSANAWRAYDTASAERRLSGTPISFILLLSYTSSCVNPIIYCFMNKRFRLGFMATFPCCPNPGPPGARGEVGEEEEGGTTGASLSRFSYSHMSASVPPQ

[4] = target: T5, Muscarinic acetylcholine receptor M2 (Homo sapiens, UniProt P08172); format: functional, cell-based
T5 sequence (P08172 whole entry): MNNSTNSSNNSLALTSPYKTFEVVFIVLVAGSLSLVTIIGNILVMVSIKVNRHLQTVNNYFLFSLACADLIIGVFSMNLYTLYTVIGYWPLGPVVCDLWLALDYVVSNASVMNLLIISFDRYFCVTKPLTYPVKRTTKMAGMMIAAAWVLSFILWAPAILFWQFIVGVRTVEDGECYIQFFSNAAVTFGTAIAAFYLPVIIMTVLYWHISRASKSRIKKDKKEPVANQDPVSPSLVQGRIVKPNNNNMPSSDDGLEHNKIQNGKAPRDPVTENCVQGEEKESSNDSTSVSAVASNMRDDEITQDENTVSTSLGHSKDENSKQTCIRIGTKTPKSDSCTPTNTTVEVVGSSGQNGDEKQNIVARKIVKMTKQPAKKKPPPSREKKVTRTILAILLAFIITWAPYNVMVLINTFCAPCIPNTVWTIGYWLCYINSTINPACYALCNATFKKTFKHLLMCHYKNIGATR

[5] = target: Voltage-gated inwardly rectifying potassium channel KCNH2 (Homo sapiens, UniProt Q12809); format: functional; settings: read-out: AC50
[6] = target: 5-hydroxytryptamine receptor 2B (Homo sapiens, UniProt P41595); format: functional, cell-based
[7] = target: T6, Alpha-2A adrenergic receptor (Homo sapiens, UniProt P08913); format: functional, cell-based
T6 sequence (P08913 whole entry): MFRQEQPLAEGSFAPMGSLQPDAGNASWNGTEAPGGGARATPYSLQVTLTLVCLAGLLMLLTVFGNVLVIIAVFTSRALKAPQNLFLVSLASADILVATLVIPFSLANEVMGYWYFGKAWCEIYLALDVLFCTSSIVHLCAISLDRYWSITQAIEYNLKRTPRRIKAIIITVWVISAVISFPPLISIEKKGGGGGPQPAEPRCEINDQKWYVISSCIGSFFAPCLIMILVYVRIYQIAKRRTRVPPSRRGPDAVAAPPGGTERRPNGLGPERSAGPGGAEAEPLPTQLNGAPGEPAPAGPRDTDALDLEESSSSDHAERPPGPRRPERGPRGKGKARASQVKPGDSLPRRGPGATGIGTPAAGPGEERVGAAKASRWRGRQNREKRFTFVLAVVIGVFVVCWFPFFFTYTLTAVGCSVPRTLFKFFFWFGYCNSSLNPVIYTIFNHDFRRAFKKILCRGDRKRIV
Also: assay procedure not described here.

D(1A) dopamine receptor, sequence (P21728 whole entry): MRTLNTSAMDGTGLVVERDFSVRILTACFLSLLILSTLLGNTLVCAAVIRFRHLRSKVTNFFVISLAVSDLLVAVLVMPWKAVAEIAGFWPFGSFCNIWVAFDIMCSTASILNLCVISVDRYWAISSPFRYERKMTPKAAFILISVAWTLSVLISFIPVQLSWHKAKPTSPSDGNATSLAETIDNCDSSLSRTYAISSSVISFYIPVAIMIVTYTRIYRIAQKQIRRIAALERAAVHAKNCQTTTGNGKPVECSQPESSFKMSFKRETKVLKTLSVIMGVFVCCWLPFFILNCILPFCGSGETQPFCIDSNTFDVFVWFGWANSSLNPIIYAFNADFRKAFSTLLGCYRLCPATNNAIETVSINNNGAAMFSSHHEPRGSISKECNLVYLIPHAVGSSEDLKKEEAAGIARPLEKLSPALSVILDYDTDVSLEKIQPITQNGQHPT
5-hydroxytryptamine receptor 2B, sequence (P41595 whole entry): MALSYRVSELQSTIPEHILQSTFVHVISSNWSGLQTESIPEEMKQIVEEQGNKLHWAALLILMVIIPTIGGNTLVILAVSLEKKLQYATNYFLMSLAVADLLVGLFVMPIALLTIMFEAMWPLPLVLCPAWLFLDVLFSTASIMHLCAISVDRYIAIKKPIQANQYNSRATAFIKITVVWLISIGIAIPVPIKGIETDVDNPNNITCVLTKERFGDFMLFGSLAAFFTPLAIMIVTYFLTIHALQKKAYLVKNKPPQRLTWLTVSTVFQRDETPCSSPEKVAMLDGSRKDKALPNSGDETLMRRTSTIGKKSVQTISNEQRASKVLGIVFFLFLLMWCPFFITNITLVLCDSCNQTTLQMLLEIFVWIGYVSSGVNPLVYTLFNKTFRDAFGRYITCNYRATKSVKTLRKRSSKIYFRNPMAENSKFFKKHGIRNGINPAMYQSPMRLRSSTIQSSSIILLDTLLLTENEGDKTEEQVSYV
Voltage-gated inwardly rectifying potassium channel KCNH2, sequence (Q12809 whole entry): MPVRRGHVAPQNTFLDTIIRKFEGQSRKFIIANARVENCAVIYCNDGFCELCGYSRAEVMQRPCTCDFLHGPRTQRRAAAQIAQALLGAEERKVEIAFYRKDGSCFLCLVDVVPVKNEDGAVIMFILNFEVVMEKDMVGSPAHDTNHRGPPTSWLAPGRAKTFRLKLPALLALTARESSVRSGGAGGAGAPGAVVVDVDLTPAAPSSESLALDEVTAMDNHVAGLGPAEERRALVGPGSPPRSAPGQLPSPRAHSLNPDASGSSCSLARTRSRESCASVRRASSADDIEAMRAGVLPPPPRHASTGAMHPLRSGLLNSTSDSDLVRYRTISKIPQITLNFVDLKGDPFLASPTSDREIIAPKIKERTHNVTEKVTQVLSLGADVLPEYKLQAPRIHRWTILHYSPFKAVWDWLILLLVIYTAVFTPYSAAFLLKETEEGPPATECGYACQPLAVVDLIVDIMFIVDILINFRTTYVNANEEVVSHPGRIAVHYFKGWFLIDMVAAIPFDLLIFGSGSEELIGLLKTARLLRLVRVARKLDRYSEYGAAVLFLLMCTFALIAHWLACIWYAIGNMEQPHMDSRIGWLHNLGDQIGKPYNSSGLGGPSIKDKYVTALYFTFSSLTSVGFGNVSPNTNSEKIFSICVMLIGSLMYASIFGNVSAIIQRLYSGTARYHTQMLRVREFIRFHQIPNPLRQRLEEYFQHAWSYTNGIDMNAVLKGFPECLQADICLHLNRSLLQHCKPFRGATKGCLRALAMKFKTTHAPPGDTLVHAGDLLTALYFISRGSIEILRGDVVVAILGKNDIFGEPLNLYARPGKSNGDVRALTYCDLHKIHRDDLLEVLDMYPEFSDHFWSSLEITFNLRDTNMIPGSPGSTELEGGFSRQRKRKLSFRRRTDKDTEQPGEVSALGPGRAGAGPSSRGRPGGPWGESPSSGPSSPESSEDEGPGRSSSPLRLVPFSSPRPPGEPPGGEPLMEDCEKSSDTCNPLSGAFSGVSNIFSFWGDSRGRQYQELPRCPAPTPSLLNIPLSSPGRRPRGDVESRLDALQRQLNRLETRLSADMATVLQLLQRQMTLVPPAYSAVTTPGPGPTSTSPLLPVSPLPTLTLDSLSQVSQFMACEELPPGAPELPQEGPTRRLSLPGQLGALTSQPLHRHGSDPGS

SMILES | AC50 [1] | AC50 (B2 bradykinin receptor) | AC50 [2] | AC50 (D(1A) dopamine receptor) | AC50 [3] | AC50 [4] | AC50 [5] | AC50 [6] | AC50 [7]
CC1(C)O[C@@H]2C[C@H]3[C@@H]4CCC5=CC(=O)C=C[C@]5(C)[C@H]4[C@@H](O)C[C@]3(C)[C@]2(C(=O)CO)O1 [DESONIDE] | > 10 µM | > 10 µM | > 10 µM | > 10 µM | > 10 µM | > 10 µM | > 30 µM | > 10 µM | > 10 µM
C#C[C@]1(O)CC[C@H]2[C@@H]3CCc4cc(OC5CCCC5)ccc4[C@H]3CC[C@@]21C [QUINESTROL] | > 10 µM | > 10 µM | > 10 µM | > 10 µM | > 10 µM | > 10 µM | > 30 µM | > 10 µM | > 10 µM
O=C(O)CCCCCCNC1c2ccccc2CCc2ccccc21 [AMINEPTINE] | > 30 µM | > 30 µM | > 30 µM | > 30 µM | > 30 µM | > 30 µM | > 30 µM | > 30 µM | > 30 µM
CC(C)Cn1cnc2c(N)nc3ccccc3c21 [IMIQUIMOD] | > 10 µM | > 10 µM | > 30 µM | > 10 µM | > 10 µM | > 10 µM | 28.3 µM | 13.8 µM | > 10 µM
COc1ccc(-c2ccc3cc(C(=O)O)ccc3c2)cc1C12CC3CC(CC(C3)C1)C2 | > 30 µM | > 30 µM | > 30 µM | > 30 µM | > 30 µM | > 30 µM | > 30 µM | > 30 µM | > 30 µM
CCN(CC)C(=O)N[C@H]1C[C@@H]2c3cccc4[nH]cc(c34)C[C@H]2N(C)C1 [TERGURIDE] | 0.0031 µM | > 30 µM | > 30 µM | 0.049 µM | > 30 µM | > 30 µM | 18 µM | 0.58 µM | 0.018 µM
OC(CNCC(O)C1CCc2cc(F)ccc2O1)C1CCc2cc(F)ccc2O1 (stereo not drawn) [NEBIVOLOL] | 2 µM | > 30 µM | > 30 µM | > 30 µM | > 30 µM | > 10 µM | 0.83 µM | 8.8 µM | 8.1 µM
CC(=O)O[C@H]1C[C@@H]2CC[C@@H]3[C@H](CC[C@@]4(C)[C@H]3C[C@H]([N+]3(C)CCCCC3)[C@@H]4OC(C)=O)[C@@]2(C)C[C@@H]1N1CCCCC1 [VECURONIUM] | > 30 µM | > 30 µM | > 30 µM | > 30 µM | > 30 µM | > 30 µM | 10.4 µM | > 30 µM | > 30 µM
CCN1CCN(C(=O)N[C@@H](C(=O)N[C@@H]2C(=O)N3C(C(=O)O)=C(CSc4nnnn4C)CS[C@H]23)c2ccc(O)cc2)C(=O)C1=O [CEFOPERAZONE] | > 30 µM | > 30 µM | > 30 µM | > 30 µM | > 30 µM | > 30 µM | > 30 µM | > 30 µM | > 30 µM
CNS(=O)(=O)Cc1ccc2[nH]cc(CCN(C)C)c2c1 | > 30 µM | > 30 µM | > 30 µM | > 30 µM | > 30 µM | > 30 µM | > 30 µM | > 10 µM | > 30 µM
CC=CC(=O)N(CC)c1ccccc1C | > 10 µM | > 10 µM | > 10 µM | > 10 µM | > 10 µM | > 10 µM | > 30 µM | > 10 µM | > 10 µM
CCCN(CCC)C(=O)C(CCC(=O)O)NC(=O)c1ccccc1 (stereo not drawn) [PROGLUMIDE] | > 30 µM | > 30 µM | > 30 µM | > 30 µM | > 30 µM | > 10 µM | > 30 µM | > 10 µM | > 10 µM
CCOC(=O)[N-]c1cn(N2CCOCC2)n[o+]1 [MOLSIDOMINE] | > 30 µM | > 30 µM | > 30 µM | > 30 µM | > 30 µM | > 30 µM | > 30 µM | > 30 µM | > 30 µM
O=C(O)[C@H](CC(=O)N1C[C@H]2CCCC[C@H]2C1)Cc1ccccc1 [MITIGLINIDE] | > 10 µM | > 10 µM | > 10 µM | > 10 µM | > 10 µM | > 10 µM | > 30 µM | > 10 µM | > 10 µM
CCCc1nc(C(C)(C)O)c(C(=O)OCc2oc(=O)oc2C)n1Cc1ccc(-c2ccccc2-c2nnn[nH]2)cc1 [OLMESARTAN MEDOXOMIL] | > 10 µM | > 30 µM | > 50 µM | > 10 µM | > 50 µM | > 10 µM | > 30 µM | > 10 µM | > 10 µM
O=C(NCCNCC(O)COc1ccc(O)cc1)N1CCOCC1 (stereo not drawn) [XAMOTEROL] | > 30 µM | > 30 µM | > 30 µM | > 30 µM | > 30 µM | > 30 µM | > 30 µM | > 30 µM | > 30 µM
CCCC(C)C1(CC)C(=O)NC(=O)NC1=O (stereo not drawn) [PENTOBARBITAL] | > 30 µM | > 10 µM | > 10 µM | > 30 µM | > 10 µM | > 10 µM | > 30 µM | > 10 µM | > 10 µM
